Results taken from US9115127B2 (AMGEN INC., priority 2010, dated 2015).

Target: T1, wild-type human ALK (cytoplasmic domain, amino acids 1058-1620, N-terminal GST fusion) (Homo sapiens, UniProt Q9UM73)
T1 construct: The cytoplasmic domain (amino acids 1058-1620) of wild-type human ALK; GST (N); made in house; host or cells: SF9 insect cells
Assay: ALK Inhibition in Enzyme Assay (Lance TR-FRET kinase assay)
Format: biochemical
Outline: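 TR-FRET read-out (Eu-W1024 PT66 anti-phosphotyrosine plus streptavidin-allophycocyanin, 320 nm excitation) quantified biotinylated peptide phosphorylation by the purified kinase. Reaction ran 90 minutes at room temperature before quenching with 20 mM EDTA in Tris pH 7.5 buffer with NaCl, BSA and Tween-20.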

T1 sequence (Q9UM73 1058-1620): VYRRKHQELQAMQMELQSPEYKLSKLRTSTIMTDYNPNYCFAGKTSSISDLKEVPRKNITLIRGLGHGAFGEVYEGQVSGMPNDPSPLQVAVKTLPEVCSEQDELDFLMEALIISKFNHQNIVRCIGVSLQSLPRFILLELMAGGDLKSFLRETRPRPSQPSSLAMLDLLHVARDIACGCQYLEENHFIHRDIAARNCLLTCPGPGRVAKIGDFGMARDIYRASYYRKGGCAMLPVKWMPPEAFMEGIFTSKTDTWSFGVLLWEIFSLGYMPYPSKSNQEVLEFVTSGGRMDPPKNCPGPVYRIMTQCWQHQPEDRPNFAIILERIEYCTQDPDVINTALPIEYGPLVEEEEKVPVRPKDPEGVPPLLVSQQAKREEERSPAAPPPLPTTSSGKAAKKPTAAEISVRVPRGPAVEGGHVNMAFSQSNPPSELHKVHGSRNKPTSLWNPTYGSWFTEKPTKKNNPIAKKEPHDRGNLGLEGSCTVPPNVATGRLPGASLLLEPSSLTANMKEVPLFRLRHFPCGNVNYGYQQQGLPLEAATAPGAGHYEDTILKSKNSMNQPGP

SMILES	IC50 [nM]
NC(=O)[C@]1(c2cccc(Br)c2)C[C@@H](n2/c(=N/C(=O)c3ccc(F)cc3)[nH]c3cnc(OCCN4CCCCC4)cc32)C1 [Example 251, (E)-N-(1-(trans-3-(3-Bromophenyl)-3-carbamoylcyclobutyl)-6-(2-(piperidin-1-yl)ethoxy)-1H-imidazo[4,5-c]pyridin-2(3H)-ylidene)-4-fluorobenzamide]	50 to 100
NC(=O)[C@]1(c2cccc(Br)c2)C[C@H](n2/c(=N/C(=O)c3ccc(F)cc3)[nH]c3cnc(OCCN4CCCCC4)cc32)C1 [Example 252, (E)-N-(1-(cis-3-(3-Bromophenyl)-3-carbamoylcyclobutyl)-6-(2-(piperidin-1-yl)ethoxy)-1H-imidazo[4,5-c]pyridin-2(3H)-ylidene)-4-fluorobenzamide]	1000 to 5000
